# Test results reported in patent publication US20050261221A1, “Compositions and methods for enhanced delivery of compounds via transfection complexes” (priority 2004, published 2005).
# Values joined by “and” are separate entries in the source; they are usually repeats but may differ in a detail not shown here. Equal values may be shown once. “Also recorded” adds a separate entry of the source.
# Tests used:
# [1] = tested on: vascular smooth muscle cells (VSMCs); assay: Transfection of VSMCs with cationic phospholipid (EDOPC)-DNA complexes, β-galactosidase microplate fluorometric assay; assay type: cell-based, Wistar rats; settings: for Effect on transfection: 0.001-0.5 μM cytochalasin B for 3 h, then DNA-lipid complexes 3 h
# Description: Primary vascular smooth muscle cells were obtained by removal of the thoracoabdominal aortas of Wistar rats, which were then stripped of endothelium and adventitia. Medial VSMCs were maintained in Dubecco's Modified Eagle's Medium (DMEM), 20% fetal bovine serum (FBS), 200 units/ml penicillin, 200 μg/ml streptomycin (all Gibco, Gaitherburg, Md.) at 37° C. with 5% CO2. At confluence, the cells were passaged using 0.25 mg/ml Trypsin/EDTA (Clonetics, Walkersville, Md.) and were used at passage 3-10 for these experiments.
# The cells were seeded in 96-well plates at 24 h before transfection at densities to give about 80% confluence at the time of transfection. Normally, EDOPC was suspended in D-PBS at 1 mg/ml to form liposomes. Liposomes and plasmid DNA were diluted in serum-free cell culture medium to 60 μg/ml for lipid and to 20 μg/ml for DNA, and liposomes were pipetted into an equal volume of plasmid DNA solution at a 3:1 weight ratio and mixed gently. The resultant DNA-lipid complexes were incubated at room temperature for 15 min and then added to the cells that were either in medium lacking serum or medium containing 20% fetal bovine serum (FBS). At 3 h after addition of DNA-lipid complexes, except as stated otherwise, the cells were washed with PBS and fresh medium containing 20% FBS was added. Generally, the cells were incubated with free drugs in 20% FBS DMEM for the indicated duration, and then, unless otherwise described, the cells were washed with PBS and incubated with DNA-lipid complexes. For experiments involving co-treatment with taxol and colchicine, the cells were first incubated with taxol for 30 min and then colchicine was added to the medium. […] Subsequent steps were same as for the normal lipoplexes.
# Cells were assayed for β-galactosidase activity 24 h after transfection with a microplate fluorometric assay, modified by inclusion of a heating step (50° C., 45 min) to inactivate endogenous enzyme activity. Following aspiration of the medium from each well, the cells were washed once with PBS and then lysed by addition of 100 μl lysis buffer (0.03% Triton X-100 in 100 mM HEPES, pH 7.8, containing 1 mM MgSO4, 10 mM KCl). The plates were placed at 50° C. for 45 min and then allowed to cool to room temperature. 10 μl 100 μM FDG (fluorescein di-β-D-galactopyranoside) was added into each well. Fluorescence was measured with a microplate fluorimeter (Model 7620, Cambridge Technology Inc.) after incubation at 37° C. for 3 h. Fluorescence intensity is proportional to β-galactosidase expression; 2000 fluorescence units corresponded approximately to 0.1 milliunit of β-galactosidase. The expression of VSMCs transfected with normal lipoplexes in absence of serum and any pretreatment was ˜0.1 milliunit per well.
# [2] = tested on: nerve growth factor (NGF) mRNA; settings: reported [39]; cited from earlier work
# [3] = cited from earlier work
# [4] = 100 μM TLCK in fresh 20% FBS after 3 h lipoplex treatment
smiles,measurement,setting,value
"COC(=O)Nc1nc2ccc(C(=O)c3cccs3)cc2[nH]1 [Nocodazole, nocodazole]",Fold increase of transfection means ± S.D.,"[1]; optimal conditions: 50 μM free drug, 3 h pretreatment, 20% FBS",14 ± 2.0 fold
same,Fold increase of transfection means ± S.D.,"[1]; optimal conditions: 50 μM free drug, 3 h pretreatment, 20% FBS, listed as nocodazole",14 fold
same,Fold increase of transfection means ± S.D.,"[1]; optimal conditions: 50 μM free drug, 3 h pretreatment, No serum",31 ± 5.0 fold
same,Fold increase of transfection means ± S.D.,"[1]; optimal conditions: 50 μM free drug, 3 h pretreatment, No serum, listed as nocodazole",31 fold
same,Effect on the level of NGF mRNA,[2],increase
"S=C(S)N1CCCC1 [PDTC, pyrrolidinedithiocarbamate]",inhibition at 10 µM,"[1]; Rattus norvegicus, VSMC, read-out: Reduction of transfection with VB-lipoplexes (inhibition of vinblastine stimulation), 10 μM PDTC in fresh 20% FBS after 3 h lipoplex treatment",85%
same,Transfection stimulation by VB-lipoplexes,[1]; after treatment with 10 μM PDTC,5 ×
"Cc1ccc(S(=O)(=O)N[C@@H](CCCCN)C(=O)CCl)cc1 [TLCK, Nα-p-tosyl-L-lysine chloromethyl ketone]",Decrease of transfection of VB-lipoplexes (inhibition of vinblastine stimulation),[1]; [4],66%
same,Decrease of transfection of normal lipoplexes,[1]; [4],50%
"CC[C@]1(O)C[C@H]2CN(CCc3c([nH]c4ccccc34)[C@@](C(=O)OC)(c3cc4c(cc3OC)N(C=O)[C@H]3[C@@](O)(C(=O)OC)[C@H](OC(C)=O)[C@]5(CC)C=CCN6CC[C@]43[C@@H]65)C2)C1 [Vincristine, vincristine]",Fold increase of transfection means ± S.D.,"[1]; optimal conditions: 1/50 (w/w) VC/lipid incorporated in lipid, 20% FBS during 3 h incubation with complexes",39 ± 6.9 fold
same,Fold increase of transfection means ± S.D.,"[1]; optimal conditions: 1/50 (w/w) VC/lipid incorporated in lipid, 20% FBS during 3 h incubation with complexes, listed as vincristine",39 fold
same,Fold increase of transfection means ± S.D.,"[1]; optimal conditions: 1/50 (w/w) VC/lipid incorporated in lipid, No serum during 3 h incubation with complexes",25 ± 5.7 fold
same,Fold increase of transfection means ± S.D.,"[1]; optimal conditions: 1/50 (w/w) VC/lipid incorporated in lipid, No serum during 3 h incubation with complexes, listed as vincristine",25 fold
"COc1cc2c(c(OC)c1OC)-c1ccc(OC)c(=O)cc1[C@@H](NC(C)=O)CC2 [colchicine, Colchicine]",Effect on transfection when added to cells simultaneously with lipoplexes,"[1]; 0.05 μg/ml colchicine, simultaneous with lipoplexes, absence of serum",increased marginally
same,Effect on expression when added to cells simultaneously with lipoplexes,[1]; free colchicine added simultaneously with lipoplexes,not noticeably stimulated; also recorded: no stimulation
same,Fold increase of transfection (β-galactosidase expression),"[1]; pretreatment with 8 μg/ml free colchicine 3 h, 20% FBS",~23 fold and 24 fold
same,Fold increase of transfection (β-galactosidase expression),"[1]; pretreatment with 8.0 μg/ml free colchicine 3 h, absence of serum",~23 fold
same,Effect on the level of NGF mRNA,[2],increase
C=C1[C@@H](C)[C@H]2[C@H](Cc3ccccc3)NC(=O)[C@]23OC(=O)/C=C/[C@H](O)CCC[C@@H](C)C/C=C/[C@H]3[C@@H]1O [cytochalasin B],Effect on transfection,[1],No effect
same,Effect on transfection,[1]; listed as Cytochalasin B,no effect
same,Effect on the level of NGF mRNA,[2],does not increase
CC[C@@]1([C@@H]2O[C@@H]([C@H]3O[C@@](O)(CO)[C@H](C)C[C@@H]3C)C[C@@H]2C)CC[C@H]([C@]2(C)CC[C@]3(C[C@H](O)[C@@H](C)[C@@H]([C@@H](C)[C@@H](OC)[C@H](C)C(=O)O)O3)O2)O1 [monensin],Fold effect on transfection relative to no pretreatment,"[1]; 1 μM monensin for 15 min, then normal DNA-lipid complexes (FIG. 6)",9.5 fold
COc1cc([C@@H]2c3cc4c(cc3[C@H](O)[C@H]3COC(=O)[C@H]23)OCO4)cc(OC)c1OC [podophyllotoxin],Fold increase of transfection means ± S.D.,"[1]; optimal conditions: 20 μM free drug, 3 h pretreatment, 20% FBS",14 fold and 14 ± 5.8 fold
same,Fold increase of transfection means ± S.D.,"[1]; optimal conditions: 20 μM free drug, 3 h pretreatment, No serum",26 fold and 26 ± 4.5 fold
CC(=O)O[C@H]1C(=O)[C@@]2(C)[C@H]([C@H](OC(=O)c3ccccc3)[C@]3(O)C[C@H](OC(=O)[C@H](O)[C@@H](NC(=O)c4ccccc4)c4ccccc4)C(C)=C1C3(C)C)[C@]1(OC(C)=O)CO[C@@H]1C[C@@H]2O [taxol],Effect on the stimulation of transfection by colchicine,"[1]; 4 μM taxol 30 min, then 0.8 μg/ml colchicine added",blocked
same,"Effect on transfection efficiency, taxol alone",[1]; pretreatment with 4 μM taxol 3 h,no effect
same,Effect on the stimulation of VB-lipoplexes,[1]; pretreatment with taxol,blocked
same,Effect on colchicine's increase of NGF mRNA,[2],suppresses
CC[C@]1(O)C[C@@H]2CN(CCc3c([nH]c4ccccc34)[C@@](C(=O)OC)(c3cc4c(cc3OC)N(C)[C@H]3[C@@](O)(C(=O)OC)[C@H](OC(C)=O)[C@]5(CC)C=CCN6CC[C@]43[C@@H]65)C2)C1 [vinblastine],Stimulation of transfection of SMGA-β-Gal plasmid (smooth muscle γ-actin gene promoter),"[1]; CMV-IEP-β-Gal replaced with SMGA-β-Gal, preliminary result",not stimulated
same,Maximal stimulation of transgene expression,[1]; vinblastine incorporated into the lipoplexes,~30 fold
same,Solubility in chloroform,[3]; chloroform,soluble
same,Solubility in water,[3]; water,essentially insoluble
same,Effect on the level of NGF mRNA,[2],increase
